# Assay results: US11370774B2, “Substituted benzofuran, benzopyrrole, benzothiophene, and structurally related complement inhibitors” (BioCryst Pharmaceuticals, Inc., priority 2018, dated 2022)
# Target: Factor D (Homo sapiens (Human), UniProt P00746)
# Test: Factor D esterolytic assay (Z-Lys-SBzl substrate, DTNB, 405 nm)
# Assay type: biochemical
# Settings: Z-Lys-SBzl 1.29 mM, pH 7.5, 10% DMSO, tested a minimum of three times, read-out: Measured Ki (IC50) Value for Compounds: IC50
# Procedure: The IC50 value of a compound (i.e., the concentration of the compound that inhibits 50% of the enzymatic activity) was calculated according to the procedure reported in U.S. Pat. No. 6,653,340 B1, e.g., column 74 (incorporated by reference).
# Specifically, the compounds were dissolved in a stock solution of DMSO at 10.0 or 100 mM. A portion of this stock solution was added to assay buffer in a final volume of 50 μL. Controls included buffer alone and enzyme solutions to which DMSO was added. Substrate was added to the reaction wells immediately or after incubation at room temperature. The reaction rates were measured spectrophotometrically by the generation of product at 405 nm for 600 sec. Background absorbance at 690 nm was measured and subtracted from the absorbance at 405 nm for each well.
# The reaction rate for enzyme alone was compared to the rate of enzyme in the presence of inhibitor and the percent inhibition was calculated as shown below: Percent Inhibition=[Rate without inhibitor−Rate with inhibitor)/(Rate without inhibitor)]×100 Factor D Esterolytic Assay:
# An established esterolytic assay for the measurement of Factor D activity and inhibition of Factor D activity was used (Kam, C. M.; McRae, B. J.; Harper, J. W.; Niemann, M. A.; Volanakis, J. E.; Powers, J. C. Human complement proteins D, C2, and B Active site mapping with peptide thioester substrates. J Biol. Chem. 1987, 262, 3444-3451). For this assay Z-Lys-SBzl, 1.29 mM (Kim, S.; Narayana, S. V. L; Volanakis, J. E. Mutational analysis of the substrate binding site of human complement Factor D. Biochemistry. 1994, 33, 14393-14399.) was used as the substrate for Factor D ([…]). Hydrolysis of this compound by Factor D liberated a free sulfhydryl group which is then reacted with 5,5′-dithiobis(2nitrobenzoic acid) producing an intense yellow color (Habeeb, A. F. S. A. Reaction of protein sulfhydryl groups with Ellman's Reagent. Methods in Enzymol. 1976, 25, 457-464). The assays were performed in 96 well microtiter plates and rates of hydrolysis were monitored at 405 nm on a Biotek Synergy H1 plate reader. Hydrolysis rates were reported as change in mOD/min. The assay was conducted in 100 mM HEPES, 500 mM NaCl, pH 7.5 containing 10% DMSO in a final volume of 50 μL per well.
# An IC50, a compound concentration which inhibits 50% of the enzymatic activity, was calculated. Compounds in the examples were tested a minimum of three times.
# Factor D, sequence (P00746 26-253): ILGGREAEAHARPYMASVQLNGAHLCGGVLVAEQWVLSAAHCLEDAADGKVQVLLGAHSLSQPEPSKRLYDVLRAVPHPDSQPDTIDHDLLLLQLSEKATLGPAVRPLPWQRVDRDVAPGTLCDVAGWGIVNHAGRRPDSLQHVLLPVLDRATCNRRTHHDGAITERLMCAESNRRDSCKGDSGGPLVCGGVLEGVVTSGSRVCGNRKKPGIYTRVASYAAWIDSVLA
row,SMILES,IC50
1,"Cc1c[nH]c2cc(C(=O)Nc3ccccc3CC(=O)O)cc(-c3cccc(CN)c3)c12 [Compound 81d, 2-(2-(4-(3-(aminomethyl)phenyl)-3-methyl-1H-indole-6-carboxamido)phenyl)acetic acid]",> 10 µM
2,"CC(N)c1cccc(-c2cc(COc3ccccc3CC(=O)O)cc3ccoc23)n1 (stereo not drawn) [Compound 100c, 2-(2-((7-(6-(1-aminoethyl)pyridin-2-yl)benzofuran-5-yl)methoxy)phenyl)acetic acid]",1 to 10 µM
3,"COCc1cc2cc(COc3ccccc3CC(=O)O)cc(-c3cccc(CN)c3F)c2o1 [Compound 99b, 2-(2-((7-(3-(aminomethyl)-2-fluorophenyl)-2-(methoxymethyl)benzofuran-5-yl)methoxy)phenyl)acetic acid]",< 1 µM
4,"COCc1cc2cc(COc3cc(C)ccc3CC(=O)O)cc(-c3cccc(CN)c3F)c2o1 [Compound 444c, 2-(2-((7-(3-(aminomethyl)-2-fluorophenyl)-2-(methoxymethyl)benzofuran-5-yl)methoxy)-4-methylphenyl)acetic acid]",< 1 µM
5,"NCc1cccc(-c2cc(COc3cc(F)ccc3CC(=O)O)cc3cc(F)oc23)c1F [Compound 521b, 2-(2-((7-(3-(aminomethyl)-2-fluorophenyl)-2-fluorobenzofuran-5-yl)methoxy)-4-fluorophenyl)acetic acid]",< 1 µM
6,"NCc1cccc(-c2cc(CNc3ccccc3CC(=O)O)cc3ccoc23)c1 [Compound 153b, lithium 2-(2-(((7-(3-(aminomethyl)phenyl)benzofuran-5-yl)methyl)amino)phenyl)acetate]",< 1 µM
7,"Cn1ccc2c(-c3ccnc(CN)c3F)cc(COc3ccccc3CC(=O)O)cc21 [Compound 150b, 2-(2-((4-(2-(aminomethyl)-3-fluoropyridin-4-yl)-1-methyl-1H-indol-6-yl)methoxy)phenyl)acetic acid]",< 1 µM
8,"NCc1cc(-c2cc(COc3ccccc3CC(=O)O)cc3c2ccn3CC2CC2)ccn1 [Compound 155c, 2-(2-((4-(2-(aminomethyl)pyridin-4-yl)-1-(cyclopropylmethyl)-1H-indol-6-yl)methoxy)phenyl)acetic acid]",< 1 µM
9,"NCc1cccc(-c2cc(COc3cccc(F)c3CC(=O)O)cc3ccoc23)c1 [Compound 328f, 2-(2-((7-(3-(aminomethyl)phenyl)benzofuran-5-yl)methoxy)-6-fluorophenyl)acetic acid]",< 1 µM
10,"NCc1cccc(-c2cc(COc3c(CC(=O)O)cccc3-c3ccccc3)cc3ccoc23)c1 [Compound 370f, 2-(2-((7-(3-(aminomethyl)phenyl)benzofuran-5-yl)methoxy)-[1,1′-biphenyl]-3-yl)acetic acid]",< 1 µM
11,"Cn1ccc(NCc2cc3cc(COc4ccccc4CC(=O)O)cc(-c4cccc(CN)c4)c3o2)n1 [Compound 372c, 2-(2-((7-(3-(aminomethyl)phenyl)-2-(((1-methyl-1H-pyrazol-3-yl)amino)methyl)benzofuran-5-yl)methoxy)phenyl)acetic acid]",< 1 µM

# Results, then the compound that gave them:
row,IC50,SMILES
1,< 1 µM,"NCc1cccc(-c2cc(COc3ccc(CO)cc3CC(=O)O)cc3ccoc23)c1 [Compound 254c, 2-(2-((7-(3-(aminomethyl)phenyl)benzofuran-5-yl)methoxy)-5-(hydroxymethyl)phenyl)acetic acid]"
2,< 1 µM,"Cc1ccc(S(=O)(=O)n2ccc3c(-c4cccc(CN)c4)cc(COc4ccccc4CC(=O)O)nc32)cc1 [Compound 49f, 2-(2-((4-(3-(aminomethyl)phenyl)-1-tosyl-1H-pyrrolo[2,3-b]pyridin-6-yl)methoxy)phenyl)acetic acid]"
3,< 1 µM,"Cc1coc2c(-c3cccc(CN)c3)cc(COc3ccccc3CC(=O)O)cc12 [Compound 382h, 2-(2-((7-(3-(aminomethyl)phenyl)-3-methylbenzofuran-5-yl)methoxy)phenyl)acetic acid]"
4,< 1 µM,"NCc1cccc(-c2cc(COc3ccccc3C(NC(=O)[C@@H]3C[C@H]3c3ccccc3)C(=O)O)cc3ccoc23)c1 (stereo partly drawn) [Compound 234f, 2-(2-((7-(3-(aminomethyl)phenyl)benzofuran-5-yl)methoxy)phenyl)-2-((1R,2R)-2-phenylcyclopropanecarboxamido)acetic acid]"
5,< 1 µM,"NCc1cccc(-c2cc(COc3ccccc3CC(=O)O)cc3sccc23)c1F [Compound 117b, 2-(2-((4-(3-(aminomethyl)-2-fluorophenyl)benzo[b]thiophen-6-yl)methoxy)phenyl)acetic acid]"
6,< 1 µM,"NCc1cccc(-c2cc(C(=O)Nc3ccccc3CC(=O)O)cc3ccccc23)c1 [Compound 18f, 2-(2-(4-(3-(aminomethyl)phenyl)-2-naphthamido)phenyl)acetic acid]"
7,< 1 µM,"CC(=O)Nc1ccc(OCc2cc(-c3cccc(CN)c3)c3occc3c2)c(CC(=O)O)c1 [Compound 360c, 2-(5-acetamido-2-((7-(3-(aminomethyl)phenyl)benzofuran-5-yl)methoxy)phenyl)acetic acid]"
8,< 1 µM,"COc1cncc(NCc2cc3cc(COc4ccccc4CC(=O)O)cc(-c4cccc(CN)c4)c3o2)c1 [Compound 279c, 2-(2-((7-(3-(aminomethyl)phenyl)-2-(((5-methoxypyridin-3-yl)amino)methyl)benzofuran-5-yl)methoxy)phenyl)acetic acid]"
9,< 1 µM,"COCc1cc2cc(COc3cc(OC)ccc3CC(=O)O)cc(-c3cccc(CN)c3)c2o1 [Compound 466c, 2-(2-((7-(3-(aminomethyl)phenyl)-2-(methoxymethyl)benzofuran-5-yl)methoxy)-4-methoxyphenyl)acetic acid]"
10,< 1 µM,"NCc1nccc(-c2cc(COc3ccccc3CC(=O)O)cc3ccoc23)c1F [Compound 80e, 2-(2-((7-(2-(aminomethyl)-3-fluoropyridin-4-yl)benzofuran-5-yl)methoxy)phenyl)acetic acid]"
11,< 1 µM,"NCCc1cccc(-c2cc(COc3ccccc3CC(=O)O)cc3ccoc23)c1 [Compound 95c, 2-(2-((7-(3-(2-aminoethyl)phenyl)benzofuran-5-yl)methoxy)phenyl)acetic acid]"
12,< 1 µM,"CNC(=O)c1cc2cc(COc3ccccc3CC(=O)O)cc(-c3cccc(CN)c3)c2o1 [Compound 289d, 2-(2-((7-(3-(aminomethyl)phenyl)-2-(methylcarbamoyl)benzofuran-5-yl)methoxy)phenyl)acetic acid]"
13,< 1 µM,"Cc1ccc(CC(=O)O)c(OCc2cc(-c3ccnc(CN)c3F)c3oc(F)cc3c2)c1 [Compound 525c, 2-(2-((7-(2-(aminomethyl)-3-fluoropyridin-4-yl)-2-fluorobenzofuran-5-yl)methoxy)-4-methylphenyl)acetic acid]"
14,< 1 µM,"COc1ccc(CC(=O)O)c(OCc2cc(-c3cccc(CN)c3)c3occ(C(F)(F)F)c3c2)c1 [Compound 488c, 2-(2-((7-(3-(aminomethyl)phenyl)-3-(trifluoromethyl)benzofuran-5-yl)methoxy)-4-methoxyphenyl)acetic acid]"
15,< 1 µM,"NCc1cccc(-c2cc(COc3ccccc3CC(=O)O)cc3c(N)noc23)c1F [Compound 245g, 2-(2-((3-amino-7-(3-(aminomethyl)-2-fluorophenyl)benzo[d]isoxazol-5-yl)methoxy)phenyl)acetic acid]"
16,< 1 µM,"NCc1cccc(-c2cc(COc3ccccc3CC(=O)O)nc3ccoc23)c1 [Compound 119e, 2-(2-((7-(3-(aminomethyl)phenyl)furo[3,2-b]pyridin-5-yl)methoxy)phenyl)acetic acid]"
